Measured values taken from US8993626B2, “Methods of treatment using sterculic acid” (The United States of America, as represented by the …, priority 2010, dated 2015).
Entries after “also recorded” stand apart in the source; their conditions may differ.

Experiments:
[1] = test system: Colon Cancer, SW-620; assay: NCI in vitro anti-cancer cell line screen (SRB); conditions: Homo sapiens, SW-620, 48 h
Experimental: The human tumor cell lines used in the cancer screen panel were grown in RPMI 1640 medium containing 5% FBS and 2 mM L-glutamine. The cells were inoculated into 96-well microtiter plates in 100 μl at plating density ranging from 5000 to 40,000 cell/well. […] Following drug addition, the plates were incubated for an additional 48 h. The assay was terminated by the addition of cold 10% TCA. The supernatant was discarded, and the plates were washed five times with water and air dried. Sulforhodamine B (SRB) solution (100 μl) at 0.4% (w/v) in 1% acetic acid was added to each well, and plates were incubated for 10 min at room temperature. After staining, unbound dye was removed by washing five times with 1% acetic acid and the plates were air dried. Bound stain was subsequently solubilized with 10 mM trizma base, and the absorbance was read on an automated plate reader at a wavelength of 515 nm.
A sulforhodamine B (SRB) end point was used to calculate the median growth inhibition (GI50). GI50 refers to the concentration at which the drug inhibits tumor cell growth by 50%.

[2] = test system: ARPE-19 cells; assay: qRT-PCR of cytokines in TNF-α treated cells; assay type: cell-based
Experimental: FIGS. 17A-17D depict the mRNA expressions of (A) IL-1β, (B) IL-8, (C) IκBα, and (D) GRP78 in response to 2 ng/ml TNF-α, 1 μM sterculic acid, 1 μM stearic acid, or the combinations of TNF-α with either sterculic acid or stearic acid. n=3. Error bars indicate the standard deviations.
Tumor necrosis factor-alpha (TNF-α, Roche Diagnostics, Indianapolis, Ind.) was diluted in PBS to make 10 μg/ml stock solution and stored at −20° C. In order to test the anti-inflammation effect of fatty acids against TNF-α, ARPE-19 cells were treated with 2 ng/ml of TNF-α for 24 hr in serum-free medium with or without 1 μM fatty acids. The mRNA expressions of cytokines were then examined using qRT-PCR. Each treatment was performed three times with quadruplicate measurements in each experiment, in 24-well plates.
The RNA was extracted using RNeasy Mini Kit (Qiagen, Valencia, Calif.). The reverse transcription was performed with reagents and kits from Invitrogen. Quantification of mRNA expression was performed using the Taqman gene expression assays and the following primers (VEGFa, Hs00173626_m1; IL-1β, Hs01555413_m1; IL-6, Hs00174131_m1; IL-8, Hs00174103_m1; IκBα, Hs00153283_m1; GRP78, Hs99999174_m1; CHOP, Hs01090850_m1; NOX2, Hs00166163_m1; NOX4, Hs01558199_m1; SCD, Hs00748952 s1; TNF-α, Hs00174128_m1; TGF-β1, Hs00998133_m1; GAPD, 4352934e). GAPD expression was used as an endogenous standard. All qRT-PCR experiments were measured in triplicates in an ABI 7500 Real-Time PCR Instrument (Applied Biosystems, Foster City, Calif.). The results of each treatment were normalized and presented in percentage relative to the vehicle-only control.

[3] = test system: ARPE19 cells; assay: 7-ketocholesterol-mediated cytotoxicity, 24-well CCK-8 viability and images; conditions: 24 hr
[4] = test system: bFGF-induced angiogenesis; assay: Chick chorioallantonic membrane (CAM) assay; assay type: in vivo; conditions: for decrease in blood vessels induced by bFGF: bFGF 5 ng/ml, 72 h
Experimental: Results shown are reported as the reduction in angiogenic stimulation (vessels counted) compared to untreated controls. A, bFGF (5 ng/ml); B, bFGF (5 ng/ml)+5 μl DMSO; C, bFGF (5 ng/ml)+5 μl DMSO containing 1 μg/ml sterculic acid; D, bFGF (5 ng/ml)+5 μl DMSO containing 10 μg/ml sterculic acid.
Fertilized chick embryos, 9-day old, were maintained in a 48 place table top egg incubator at 37° C. in a specific humidity of 60%. After swabbing the egg shell with 70% alcohol, a small window was cut through the egg shell close to the inner shell surface where the prominent blood vessels are located using a hobby grinding wheel (Dremel Emerson Electric Co., Racine, Wis.). A filter disc saturated with bFGF (5 ng/ml) was placed on the CAM. Sterculic acid dissolved in dimethyl sulfoxide (DMSO) at various concentrations was added to the disc daily over 3-day period of incubation. The controls received the same amount of DMSO. After 72 h the disc and surrounding CAM were excised, inverted and examined under a high power dissecting microscope. The result was reported as reduction in angiogenic stimulation (vessels counted) compared to untreated controls.

`CCCCCCCCC1=C(CCCCCCCC(=O)O)C1` [sterculic acid, 8-(2-octacyclopropen-1-yl)octanoic acid] was tested. Which GI50 [1] did it give?
The GI50 was 1000 nM.

And the “induction of GRP78 mRNA expression” value ([2]; 2 ng/ml TNF-α alone or with 1 μM fatty acid, 24 hr, FIG. 17D)?
The value was “small measurable effect”.

And the “antagonist effect to the cytokine inductions by TNF-α” value ([2]; 1 μM fatty acid + 2 ng/ml TNF-α, 24 hr)?
Its value is “did not show any antagonist effect”.

What about the “antagonist effect to TNF-α at 5 μM” value ([2]; 5 μM, data not shown) of the same compound?
The value was “failed to antagonize”.

What about the “protection of cell confluency and morphology (images)” value ([3]; 0.5 μM co-treatment with 12 μM 7KCh) of the same compound?
Its value is “maintain both cell confluency and cell morphology similar to the control; also recorded: apparent protection”.

And the “protection of cell confluency and morphology (images)” value ([3]; 1 μM co-treatment with 12 μM 7KCh)?
Its value is “maintain both cell confluency and cell morphology similar to the control; also recorded: apparent protection”.

And the “co-treatment concentration that completely offsets the 7KCh cytotoxic effect” value ([3]; 12 μM 7KCh, CCK-8)?
The value was 1 µM.

And the “concentration at which apparent protection is seen” value ([3]; 12 μM 7KCh, CCK-8)?
Its value is 0.5 µM.

What about the “decrease in blood vessels induced by bFGF” value ([4]; 1 μg/ml sterculic acid in DMSO daily) of the same compound?
Its value is “Significant decrease”.

And the “decrease in blood vessels induced by bFGF” value ([4]; 10 μg/ml sterculic acid in DMSO daily)?
Its value is “more than 3 fold”.

What about the “value observed in the CAM assay” value ([4]; compared with the HUVEC IC50) of the same compound?
Its value is 10 µM.
